Among the data in patent US6794386B2, “β-amino acid compounds as integrin antagonists” (Bayer Aktiengesellschaft, priority 2000, dated 2004) are IC50 values, retold here.

The structures appear in SMILES notation.

In one assay the target is T1, VLA-4 (Homo sapiens, UniProt P05556+P13612).
T1 construct: host or cells: Jurkat clone E6-1
T1 sequence (P13612 34-1032): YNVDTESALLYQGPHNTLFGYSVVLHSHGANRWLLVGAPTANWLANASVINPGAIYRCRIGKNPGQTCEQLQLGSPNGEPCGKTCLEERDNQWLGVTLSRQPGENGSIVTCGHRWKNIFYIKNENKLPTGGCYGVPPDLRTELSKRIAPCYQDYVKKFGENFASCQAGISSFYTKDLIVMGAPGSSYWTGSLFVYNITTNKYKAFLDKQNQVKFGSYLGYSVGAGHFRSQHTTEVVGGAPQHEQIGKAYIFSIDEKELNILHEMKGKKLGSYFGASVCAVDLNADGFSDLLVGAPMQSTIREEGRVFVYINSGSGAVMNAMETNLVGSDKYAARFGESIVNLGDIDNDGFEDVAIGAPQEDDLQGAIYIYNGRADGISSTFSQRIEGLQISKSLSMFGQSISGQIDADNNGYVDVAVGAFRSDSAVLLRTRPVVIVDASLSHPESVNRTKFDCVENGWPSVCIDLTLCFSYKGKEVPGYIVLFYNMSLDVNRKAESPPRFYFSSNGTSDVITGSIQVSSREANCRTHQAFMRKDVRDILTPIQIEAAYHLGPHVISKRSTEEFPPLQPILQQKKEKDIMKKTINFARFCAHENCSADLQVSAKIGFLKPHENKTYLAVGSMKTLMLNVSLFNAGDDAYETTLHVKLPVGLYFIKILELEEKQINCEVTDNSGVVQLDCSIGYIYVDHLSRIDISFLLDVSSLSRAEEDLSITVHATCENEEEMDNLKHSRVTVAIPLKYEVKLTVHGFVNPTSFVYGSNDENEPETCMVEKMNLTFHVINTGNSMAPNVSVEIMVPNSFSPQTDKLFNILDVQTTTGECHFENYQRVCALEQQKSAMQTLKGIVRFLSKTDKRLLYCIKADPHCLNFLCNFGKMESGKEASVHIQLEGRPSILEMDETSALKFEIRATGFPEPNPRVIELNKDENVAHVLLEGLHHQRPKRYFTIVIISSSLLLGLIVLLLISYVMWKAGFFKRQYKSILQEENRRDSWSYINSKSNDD
T1 sequence (P05556 21-798): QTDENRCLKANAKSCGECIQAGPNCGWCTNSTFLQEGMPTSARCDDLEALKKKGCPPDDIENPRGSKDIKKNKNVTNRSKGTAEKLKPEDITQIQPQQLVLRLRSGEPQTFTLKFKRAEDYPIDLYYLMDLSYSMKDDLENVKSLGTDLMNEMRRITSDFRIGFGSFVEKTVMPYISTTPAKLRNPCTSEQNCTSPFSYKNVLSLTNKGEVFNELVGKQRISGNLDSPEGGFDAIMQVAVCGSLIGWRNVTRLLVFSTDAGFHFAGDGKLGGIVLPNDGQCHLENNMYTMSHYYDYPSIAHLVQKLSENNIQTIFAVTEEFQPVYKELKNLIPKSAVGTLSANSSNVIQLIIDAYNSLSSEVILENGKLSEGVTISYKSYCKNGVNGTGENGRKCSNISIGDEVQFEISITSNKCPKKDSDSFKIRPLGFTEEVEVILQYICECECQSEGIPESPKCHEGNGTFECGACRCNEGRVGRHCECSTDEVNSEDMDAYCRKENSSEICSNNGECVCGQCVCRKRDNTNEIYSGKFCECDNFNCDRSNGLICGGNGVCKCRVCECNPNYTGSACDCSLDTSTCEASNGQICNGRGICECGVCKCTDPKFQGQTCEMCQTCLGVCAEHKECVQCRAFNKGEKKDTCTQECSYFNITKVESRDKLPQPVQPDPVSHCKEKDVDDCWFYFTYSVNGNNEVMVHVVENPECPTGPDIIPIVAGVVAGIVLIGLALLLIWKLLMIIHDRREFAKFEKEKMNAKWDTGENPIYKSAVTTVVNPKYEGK
Nature of the assay: Adhesion of Jurkat cells to immobilized VCAM-1 (domains 1-3). On the set-up: scale not given here. It is filed as cell-based. As to conditions: adhesion of CFSE-labeled Jurkat cells to recombinant human VCAM-1 (domains 1-3) coated plates; compounds as yielded by solid phase synthesis, purity about 40-90%. The essentials:
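CFSE-labelled Jurkat E6-1 cells in Tris buffer pH 7.4 with 2 mM MnCl2 were added to wells coated with insect-cell-expressed human VCAM-1 domains 1-3 (0.5 μg/ml coating solution); labelled cells were incubated for 30 min at 37 °C with the VLA-4 inhibitor.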
`COc1ccc(-c2ccc(C[C@H](NC(=O)C3CCCN(C(=O)C4CCCCC4)C3)C(=O)O)cc2)cc1` (stereo partly shown) [Example 1.24]: the IC50 result was “C-D”.
Same read-out and setting: the entry for `O=C(N[C@@H](Cc1ccc(-c2ccccc2)cc1)C(=O)O)C1CCCN(C(=O)C2CCCCC2)C1` (stereo partly shown) [Example 1.11] is “C-D”; for `Cc1ccc(-c2ccc(C[C@H](NC(=O)C3CCCN(S(=O)(=O)CC45CCC(CC4=O)C5(C)C)C3)C(=O)O)cc2)cc1` (stereo partly shown) [Example 1.65] it is “C-D”; for `O=C(N[C@@H](Cc1ccc(-c2cc(Cl)ccc2Cl)cc1)C(=O)O)C1CCCN(c2ncnc(NC3Cc4ccccc4C3)c2F)C1` (stereo partly shown) [Example 2.38] it is “C-D”.
On to `Cc1ccc(-c2ccc(C[C@H](NC(=O)C3CCCN(c4ncnc(N5CCNCC5)c4F)C3)C(=O)O)cc2)cc1` (stereo partly shown) [Example 2.9], for which the IC50 entry was “B-C”.

The assay is the same for the next values; noted with them: adhesion of CFSE-labeled Jurkat cells to recombinant human VCAM-1 (domains 1-3) coated plates; compounds as yielded by solid phase synthesis, purity about 40-90%; read-out: IC50.
On to `O=C(N[C@@H](Cc1ccc(NC(=O)N2CCN(c3ccccc3)CC2)cc1)C(=O)O)C1CCCN(S(=O)(=O)Cc2ccccc2)C1` (stereo partly shown) [Example 4.47], for which the IC50 lay within 0.5 to 2 µM.
On the same count and under the same terms, the figure for `COCCN(C)c1ncnc(N2CCCC(C(=O)N[C@@H](Cc3ccc(NC(=O)N4CCN(c5ccccc5)CC4)cc3)C(=O)O)C2)c1F` (stereo partly shown) [Example 5.46] is 0.5 to 2 µM.

As usually defined, the IC50 is the concentration that gives 50% inhibition.
